ChEMBL document CHEMBL4000228, “Synthesis of bioactive and fluorescent pyridine-triazole-coumarin peptidomimetics through sequential click-multicomponent reactions” (Bioorg Med Chem Lett, 2017)
The source made the active and inactive calls. No cut-off for these calls is given here.

What was measured:
MCF7 [1] = test: Induction of morphological changes in human MCF7 cells at 40 uM after 48 hrs by DAPI staining based fluorescence microscopic method; type: functional, cell-based
MCF7 [2] = test: Induction of morphological changes in human MCF7 cells at 40 uM after 48 hrs by DAPI staining based inverted light microscopic method; type: functional, cell-based

COc1ccc(C(CC(=O)c2cc3ccccc3oc2=O)NC(=O)CCn2cc(COc3ccc(-c4c(C#N)c(N)nc(Sc5ccccc5)c4C#N)cc3OC)nn2)cc1 (configuration not stated)
Activity (MCF7 [1]): Active
Activity (MCF7 [2]): Active
